Values quoted from earlier work, collected in US20220370332A1, “PRODUCT FOR DYEING KERATINOUS MATERIAL, CONTAINING AMINOSILICONE, A CHROMOPHORIC COMPOUND, PRESERVATIVE AND ETHOXYLATED FATTY ALCOHOL” (Henkel AG & Co. KGaA, priority 2019, published 2022).

conditions: 25° C.

Compound | solubility in water
CCN(Cc1cccc(S(=O)(=O)[O-])c1)c1ccc(C(=C2C=CC(=[N+](CC)Cc3cccc(S(=O)(=O)[O-])c3)C=C2)c2ccccc2S(=O)(=O)[O-])cc1.[Na+].[Na+] [Acid Blue 9] | more than 20 % by weight
O=S(=O)([O-])c1ccc(N=Nc2c(O)ccc3ccccc23)cc1.[Na+] [Acid Orange 7, sodium salt of 4-[(2-hydroxy-1-naphthyl)azo]benzene sulphonate] | more than 7 g/L
Nc1cc(S(=O)(=O)[O-])cc2cc(S(=O)(=O)[O-])c(N=Nc3ccccc3)c(O)c12.[Na+].[Na+] [Acid Red 33, diantrium salt of 5-amino-4-hydroxy-3-(phenylazo)-naphthalene-2,7-disulphonate] | 2500 µg/mL
O=C([O-])c1c(Cl)c(Cl)c(Cl)c(Cl)c1-c1c2c(Br)cc(=O)c(Br)c-2oc2c(Br)c(O)cc(Br)c12.O=C([O-])c1c(Cl)c(Cl)c(Cl)c(Cl)c1-c1c2c(Br)cc(=O)c(Br)c-2oc2c(Br)c(O)cc(Br)c12.[Na+].[Na+] [Acid Red 92, disodium salt of 3,4,5,6-tetrachloro-2-(1,4,5,8-tetrabromo-6-hydroxy-3-oxoxanthen-9-yl)benzoic acid] | greater than 10 g/L
O=C([O-])C1=NN(c2ccc(S(=O)(=O)[O-])cc2)C(=O)C1N=Nc1ccc(S(=O)(=O)[O-])cc1.[Na+].[Na+].[Na+] (centres unmarked) [Acid Yellow 23, trisodium salt of 4,5-dihydro-5-oxo-1-(4-sulfophenyl)-4-((4-sulfophenyl)azo)-1H-pyrazole-3-carboxylic acid] | highly soluble in water
